What all share (assay): relative viability (nuclei count vs DMSO), 5 days (fraction); higher = more cells survive
Compound in the test “NVP-TAE684 + Navitoclax”: COc1cc(N2CCC(N3CCN(C)CC3)CC2)ccc1Nc1ncc(Cl)c(Nc2ccccc2S(=O)(=O)C(C)C)n1 [NVP-TAE684] + CC1(C)CCC(c2ccc(Cl)cc2)=C(CN2CCN(c3ccc(C(=O)NS(=O)(=O)c4ccc(N[C@H](CCN5CCOCC5)CSc5ccccc5)c(S(=O)(=O)C(F)(F)F)c4)cc3)CC2)C1 [Navitoclax] (partner 0.5 µM)
The method, boiled down: (§1)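 Lung cancer cell lines were pin-tool dosed in 1536-well plates on the day after seeding, with either a lone drug or a fixed anchor-drug dose plus five library-drug doses (not always all listed) in √10 steps. Nuclei were counted on 4× images after 5 days. Relative viability is the ratio of treated-well to vehicle-well nuclei counts, with each value a median of duplicate plates.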

Compound in the test “Vandetanib + Crizotinib”: COc1cc2/c(=N/c3ccc(Br)cc3F)nc[nH]c2cc1OCC1CCN(C)CC1 [Vandetanib] + C[C@@H](Oc1cc(-c2cnn(C3CCNCC3)c2)cnc1N)c1c(Cl)ccc(F)c1Cl [Crizotinib] (partner 1 µM)
In short, it runs like this: as §1

Compound in the test “NVP-TAE684 + Crizotinib”: COc1cc(N2CCC(N3CCN(C)CC3)CC2)ccc1Nc1ncc(Cl)c(Nc2ccccc2S(=O)(=O)C(C)C)n1 [NVP-TAE684] + C[C@@H](Oc1cc(-c2cnn(C3CCNCC3)c2)cnc1N)c1c(Cl)ccc(F)c1Cl [Crizotinib] (partner 1 µM)
The method, boiled down: as §1

Compound in the test “CUDC-101 + Bortezomib”: C#Cc1cccc(Nc2ncnc3cc(OC)c(OCCCCCCC(=O)NO)cc23)c1 [CUDC-101] + CC(C)C[C@H](NC(=O)[C@H](Cc1ccccc1)NC(=O)c1cnccn1)B(O)O [Bortezomib] (partner 0.002 µM)
The method, boiled down:
as §1

NCI-H1651: the relative viability with NVP-TAE684 + Navitoclax (first compound 0.2 µM) came out at 1.41; with NVP-TAE684 + Navitoclax (first compound 0.6325 µM), 1.07; in the test with NVP-TAE684 + Navitoclax (first compound 2 µM) it was 0.964; with Vandetanib + Crizotinib (first compound 0.02 µM), 0.837; with Vandetanib + Crizotinib (first compound 0.06325 µM) it was 0.851; with Vandetanib + Crizotinib (first compound 0.2 µM), 0.831. The relative viability was found to be 0.898 with Vandetanib + Crizotinib (first compound 0.6325 µM); 0.781 with Vandetanib + Crizotinib (first compound 2 µM); 0.893 with NVP-TAE684 + Crizotinib (first compound 0.2 µM); 0.836 in the test with NVP-TAE684 + Crizotinib (first compound 0.6325 µM); 0.836 in the test with NVP-TAE684 + Crizotinib (first compound 2 µM); 1.04 with CUDC-101 + Bortezomib (first compound 0.01 µM). Also, the relative viability with CUDC-101 + Bortezomib (first compound 0.03162 µM) was 0.946; with CUDC-101 + Bortezomib (first compound 0.1 µM), 0.957; with CUDC-101 + Bortezomib (first compound 0.3162 µM), 0.912; with CUDC-101 + Bortezomib (first compound 1 µM) it was 0.921.
In the case of NCI-H1666, the relative viability with NVP-TAE684 + Navitoclax (first compound 0.2 µM) is 0.932; with NVP-TAE684 + Navitoclax (first compound 0.6325 µM) it was 0.919; with NVP-TAE684 + Navitoclax (first compound 2 µM), 0.566; in the test with Vandetanib + Crizotinib (first compound 0.02 µM), 1.05; with Vandetanib + Crizotinib (first compound 0.06325 µM), 0.894; with Vandetanib + Crizotinib (first compound 0.2 µM), 0.974. In addition, the relative viability with Vandetanib + Crizotinib (first compound 0.6325 µM) was determined as 0.859; with Vandetanib + Crizotinib (first compound 2 µM), 0.793; with NVP-TAE684 + Crizotinib (first compound 0.2 µM), 1.07; with NVP-TAE684 + Crizotinib (first compound 0.6325 µM) it was 0.841; with NVP-TAE684 + Crizotinib (first compound 2 µM) it was 0.526; with CUDC-101 + Bortezomib (first compound 0.01 µM) it was 0.967. The relative viability in the test with CUDC-101 + Bortezomib (first compound 0.03162 µM) was found to be 0.824; with CUDC-101 + Bortezomib (first compound 0.1 µM), 0.805; with CUDC-101 + Bortezomib (first compound 0.3162 µM), 0.867; with CUDC-101 + Bortezomib (first compound 1 µM), 0.721.
NCI-H1703: the relative viability with NVP-TAE684 + Navitoclax (first compound 0.2 µM) amounted to 1.17; with NVP-TAE684 + Navitoclax (first compound 0.6325 µM) it was 1.04; with NVP-TAE684 + Navitoclax (first compound 2 µM), 0.215; in the test with Vandetanib + Crizotinib (first compound 0.02 µM), 0.672; with Vandetanib + Crizotinib (first compound 0.2 µM), 0.515; with Vandetanib + Crizotinib (first compound 0.6325 µM), 0.547. For the same cell line, the relative viability is 0.234 with Vandetanib + Crizotinib (first compound 2 µM); 0.743 in the test with NVP-TAE684 + Crizotinib (first compound 0.2 µM); 0.516 in the test with NVP-TAE684 + Crizotinib (first compound 0.6325 µM); 0.144 with NVP-TAE684 + Crizotinib (first compound 2 µM); 0.401 with CUDC-101 + Bortezomib (first compound 0.01 µM); 0.305 in the test with CUDC-101 + Bortezomib (first compound 0.1 µM). Besides, the relative viability with CUDC-101 + Bortezomib (first compound 0.3162 µM) turned out to be 0.194; with CUDC-101 + Bortezomib (first compound 1 µM), 0.13.
For the cell line NCI-H1734, the relative viability was 0.844 with NVP-TAE684 + Navitoclax (first compound 0.2 µM); 0.91 with NVP-TAE684 + Navitoclax (first compound 0.6325 µM); 0.769 with NVP-TAE684 + Navitoclax (first compound 2 µM); 0.737 with Vandetanib + Crizotinib (first compound 0.02 µM); 0.618 with Vandetanib + Crizotinib (first compound 0.06325 µM); 0.67 with Vandetanib + Crizotinib (first compound 0.2 µM). The relative viability in the test with Vandetanib + Crizotinib (first compound 0.6325 µM) amounted to 0.639; with Vandetanib + Crizotinib (first compound 2 µM) it was 0.648; in the test with NVP-TAE684 + Crizotinib (first compound 0.6325 µM), 0.7; with NVP-TAE684 + Crizotinib (first compound 2 µM), 0.424; in the test with CUDC-101 + Bortezomib (first compound 0.01 µM), 1.12; in the test with CUDC-101 + Bortezomib (first compound 0.03162 µM), 0.919. Moreover, the relative viability is 0.874 with CUDC-101 + Bortezomib (first compound 0.1 µM), 0.956 with CUDC-101 + Bortezomib (first compound 0.3162 µM) and 0.478 with CUDC-101 + Bortezomib (first compound 1 µM).
As to NCI-H1755, the relative viability was found to be 1.06 with NVP-TAE684 + Navitoclax (first compound 0.2 µM); 1.06 with NVP-TAE684 + Navitoclax (first compound 0.6325 µM); 0.921 with NVP-TAE684 + Navitoclax (first compound 2 µM); 0.853 in the test with Vandetanib + Crizotinib (first compound 0.02 µM); 0.843 in the test with Vandetanib + Crizotinib (first compound 0.06325 µM); 0.789 with Vandetanib + Crizotinib (first compound 0.2 µM). For the same cell line, the relative viability with Vandetanib + Crizotinib (first compound 0.6325 µM) stood at 0.85; in the test with Vandetanib + Crizotinib (first compound 2 µM), 0.829; in the test with NVP-TAE684 + Crizotinib (first compound 0.2 µM), 0.991; in the test with NVP-TAE684 + Crizotinib (first compound 0.6325 µM) it was 0.893; with NVP-TAE684 + Crizotinib (first compound 2 µM), 0.681; in the test with CUDC-101 + Bortezomib (first compound 0.01 µM) it was 0.985. For the same cell line, the relative viability amounted to 1.06 with CUDC-101 + Bortezomib (first compound 0.03162 µM), 0.88 in the test with CUDC-101 + Bortezomib (first compound 0.1 µM), 0.933 with CUDC-101 + Bortezomib (first compound 0.3162 µM) and 0.79 with CUDC-101 + Bortezomib (first compound 1 µM).
